Test results: US8076338B2, “Kinase modulators and methods of use” (Exelixis, Inc., priority 2004, dated 2011)
pIC50: −log10 of the molar value. Where two headings read alike, the source gives them in different places.

What was measured:
p70S6K = p70S6K (Homo sapiens, UniProt P23443); test: Luciferase-coupled chemiluminescence kinase assay (ATP consumption); format: biochemical
Outline: (§1)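 Enzyme at 2.5-5 nM was preincubated 30 min at room temperature with compound in Tris pH 7.5, MgCl2, TX-100, DTT, then reacted with ATP for 3 h at ambient temperature. Remaining ATP was quantified by luciferase-luciferin chemiluminescence, with consumption kept at 25-60%; […].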

AktK = AktK (Homo sapiens, UniProt P31749); test: as above; format: biochemical; details: read-out: AKT-1 IC50
AktK, sequence (P31749 whole entry): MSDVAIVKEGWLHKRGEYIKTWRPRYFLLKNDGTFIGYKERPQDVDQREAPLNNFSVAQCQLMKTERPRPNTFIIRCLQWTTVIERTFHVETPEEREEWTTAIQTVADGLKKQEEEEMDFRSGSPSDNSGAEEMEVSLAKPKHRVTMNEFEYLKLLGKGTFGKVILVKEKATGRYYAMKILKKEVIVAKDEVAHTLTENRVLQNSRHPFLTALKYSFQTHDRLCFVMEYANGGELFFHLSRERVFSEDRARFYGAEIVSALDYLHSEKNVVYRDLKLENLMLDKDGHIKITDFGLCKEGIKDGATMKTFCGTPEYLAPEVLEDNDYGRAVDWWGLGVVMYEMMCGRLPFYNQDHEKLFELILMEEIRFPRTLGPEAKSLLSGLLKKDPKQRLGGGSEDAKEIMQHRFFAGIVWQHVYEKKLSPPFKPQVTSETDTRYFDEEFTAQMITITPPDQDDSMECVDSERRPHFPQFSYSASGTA
Outline: as §1

p70S6K, sequence (P23443 whole entry): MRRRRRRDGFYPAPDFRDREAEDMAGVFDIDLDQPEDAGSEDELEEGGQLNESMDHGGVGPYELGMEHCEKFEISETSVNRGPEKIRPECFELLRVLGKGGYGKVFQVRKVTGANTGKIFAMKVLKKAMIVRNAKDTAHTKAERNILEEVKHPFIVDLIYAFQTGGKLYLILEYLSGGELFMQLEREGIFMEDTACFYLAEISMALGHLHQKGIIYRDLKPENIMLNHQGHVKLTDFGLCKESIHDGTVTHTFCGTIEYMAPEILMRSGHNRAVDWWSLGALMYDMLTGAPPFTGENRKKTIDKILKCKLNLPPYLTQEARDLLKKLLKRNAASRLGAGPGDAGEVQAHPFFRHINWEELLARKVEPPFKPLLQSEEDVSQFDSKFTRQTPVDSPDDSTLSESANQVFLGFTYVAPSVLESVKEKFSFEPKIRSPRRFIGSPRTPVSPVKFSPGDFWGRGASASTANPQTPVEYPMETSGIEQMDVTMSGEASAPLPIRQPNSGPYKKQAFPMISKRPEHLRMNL

pIC50 (p70S6K; Table 1, class symbols per key)	pIC50 (AktK; Table 1, class symbols per key)	pIC50 (p70S6K)	pIC50 (AktK)	Compound
> 7.00	5.00 to 6.00			COc1cc(OC)cc(N2CCN(c3ncnc4[nH]nc(Br)c34)CC2)c1 [Entry 80, 4-{4-[3,5-bis(methyloxy)phenyl]piperazin-1-yl}-3-bromo-1H-pyrazolo[3,4-d]pyrimidine]
> 7.00	> 7.00			Cc1ccc(-c2ccccc2OCCCN2CCOCC2)cc1N1CCN(c2ncnc3[nH]nc(Br)c23)CC1 [Entry 278, 3-bromo-4-(4-{4-methyl-2′-[(3-morpholin-4-ylpropyl)oxy]biphenyl-3-yl}piperazin-1-yl)-1H-pyrazolo[3,4-d]pyrimidine]
> 7.00	5.00 to 6.00			Cc1c(OCCN2CCCC2)cc(Cl)cc1N1CCN(c2ncnc3[nH]nc(CC(C)C)c23)CC1 [Entry 163, 4-(4-{5-chloro-2-methyl-3-[(2-pyrrolidin-1-ylethyl)oxy]phenyl}piperazin-1-yl)-3-(2-methylpropyl)-1H-pyrazolo[3,4-d]pyrimidine]
> 7.00	≤ 5.00			FC(F)(F)c1cccc(N2CCN(c3ncnc4[nH]nc(Br)c34)CC2)c1 [Entry 155, 3-bromo-4-{4-[3-(trifluoromethyl)phenyl]piperazin-1-yl}-1H-pyrazolo[3,4-d]pyrimidine]
> 7.00	> 7.00			CCCC(=O)c1cc(NCCN2CCCC2)c(C)c(N2CCN(c3ncnc4[nH]nc(Br)c34)CC2)c1 [Entry 248, 1-{3-[4-(3-bromo-1H-pyrazolo[3,4-d]pyrimidin-4-yl)piperazin-1-yl]-4-methyl-5-[(2-pyrrolidin-1-ylethyl)amino]phenyl}butan-1-one]
> 7.00	> 7.00			Cc1c(NCCN2CCCC2)cc(C(=O)c2ccccc2)cc1N1CCN(c2ncnc3[nH]nc(Br)c23)CC1 [Entry 236, {3-[4-(3-bromo-1H-pyrazolo[3,4-d]pyrimidin-4-yl)piperazin-1-yl]-4-methyl-5-[(2-pyrrolidin-1-ylethyl)amino]phenyl}(phenyl)methanone]
		> 7.00	5.00 to 6.00	CCN(CC)CC#Cc1n[nH]c2ncnc(N3CCN(c4cc(Cl)ccc4C)CC3)c12 [Entry 392, 3-{4-[4-(5-chloro-2-methylphenyl)piperazin-1-yl]-1H-pyrazolo[3,4-d]pyrimidin-3-yl}-N,N-diethylprop-2-yn-1-amine]
> 7.00	5.00 to 6.00			Cc1c(OCCN2CCCC2)cc(Cl)cc1N1CCN(c2ncnc3[nH]nc(C4CC4)c23)CC1 [Entry 160, 4-(4-{5-chloro-2-methyl-3-[(2-pyrrolidin-1-ylethyl)oxy]phenyl}piperazin-1-yl)-3-cyclopropyl-1H-pyrazolo[3,4-d]pyrimidine]
> 7.00	> 7.00			COC(=O)c1cc(NCCN2CCCC2)c(C)c(N2CCN(c3ncnc4[nH]nc(Br)c34)CC2)c1 [Entry 190, methyl 3-[4-(3-bromo-1H-pyrazolo[3,4-d]pyrimidin-4-yl)piperazin-1-yl]-4-methyl-5-[(2-pyrrolidin-1-ylethyl)amino]benzoate]
6.00 to 7.00	5.00 to 6.00			CC(=O)c1ccc(N2CCN(c3ncnc4[nH]nc(Br)c34)CC2)cc1 [Entry 94, 1-{4-[4-(3-bromo-1H-pyrazolo[3,4-d]pyrimidin-4-yl)piperazin-1-yl]phenyl}ethanone]
		> 7.00	5.00 to 6.00	Cc1ccc(Cl)cc1N1CCN(c2ncnc3[nH]nc(C(C)C)c23)CC1 [Entry 351, 4-[4-(5-chloro-2-methylphenyl)piperazin-1-yl]-3-(1-methylethyl)-1H-pyrazolo[3,4-d]pyrimidine]
		5.00 to 6.00	5.00 to 6.00	Cc1ccc(Cl)cc1N1CCN(c2nc(-c3ccccc3)nc3[nH]nc(C)c23)CC1 [Entry 322, 4-[4-(5-chloro-2-methylphenyl)piperazin-1-yl]-3-methyl-6-phenyl-1H-pyrazolo[3,4-d]pyrimidine]

Compound	pIC50 (p70S6K; Table 1, class symbols per key)	pIC50 (AktK; Table 1, class symbols per key)	pIC50 (p70S6K)	pIC50 (AktK)
Cc1ccc(Cl)cc1N1CCN(c2ncnc3[nH]nc(Nc4ccccc4)c23)CC1 [Entry 332, 4-[4-(5-chloro-2-methylphenyl)piperazin-1-yl]-N-phenyl-1H-pyrazolo[3,4-d]pyrimidin-3-amine]			5.00 to 6.00	5.00 to 6.00
